{"source": "patent US9845295B2", "about": "“Triphenylethylene compounds and uses thereof” (Purdue Research Foundation, priority 2015, dated 2017)", "key": {"[1]": {"target": "T1, recombinant human aromatase (CYP19) (Homo sapiens, UniProt P11511)", "T1 construct": "purchased BD Biosciences (San Jose, Calif.)", "T1 sequence (P11511 1-503)": "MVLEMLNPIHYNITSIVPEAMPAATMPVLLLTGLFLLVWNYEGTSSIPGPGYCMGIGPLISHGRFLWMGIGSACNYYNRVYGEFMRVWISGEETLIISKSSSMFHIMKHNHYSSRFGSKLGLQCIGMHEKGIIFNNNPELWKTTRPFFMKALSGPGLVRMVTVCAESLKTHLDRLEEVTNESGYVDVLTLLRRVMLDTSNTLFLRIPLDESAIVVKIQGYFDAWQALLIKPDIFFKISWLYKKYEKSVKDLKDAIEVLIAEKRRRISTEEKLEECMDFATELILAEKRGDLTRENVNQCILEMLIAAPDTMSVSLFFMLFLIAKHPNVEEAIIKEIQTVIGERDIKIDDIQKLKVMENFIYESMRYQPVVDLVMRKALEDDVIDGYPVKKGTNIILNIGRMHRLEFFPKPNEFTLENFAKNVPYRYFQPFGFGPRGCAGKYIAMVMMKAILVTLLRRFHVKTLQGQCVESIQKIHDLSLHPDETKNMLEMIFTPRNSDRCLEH", "test": "Inhibition of recombinant human aromatase (CYP19) by microsomal incubations (MFC fluorometric substrate)", "type": "biochemical", "procedure": "Inhibition of Recombinant Human Aromatase (CYP19) by Microsomal Incubations.\nAll tested samples were dissolved in either methanol or DMSO. […] All the reactions were stopped by adding 0.1 M tris base dissolved in acetonitrile (75 μL). […] The extent of enzyme inhibition was expressed as the percentage of remaining enzyme activity compared to the control."}, "ER in MCF-7-2a cells": {"system": "ER in MCF-7-2a cells", "details": "in words; cited from earlier work"}, "recombinant human ER-α": {"target": "T2, recombinant human ER-α (Homo sapiens, UniProt P03372)", "T2 construct": "purchased Invitrogen (Carlsbad, Calif.)", "T2 sequence (P03372 1-595)": "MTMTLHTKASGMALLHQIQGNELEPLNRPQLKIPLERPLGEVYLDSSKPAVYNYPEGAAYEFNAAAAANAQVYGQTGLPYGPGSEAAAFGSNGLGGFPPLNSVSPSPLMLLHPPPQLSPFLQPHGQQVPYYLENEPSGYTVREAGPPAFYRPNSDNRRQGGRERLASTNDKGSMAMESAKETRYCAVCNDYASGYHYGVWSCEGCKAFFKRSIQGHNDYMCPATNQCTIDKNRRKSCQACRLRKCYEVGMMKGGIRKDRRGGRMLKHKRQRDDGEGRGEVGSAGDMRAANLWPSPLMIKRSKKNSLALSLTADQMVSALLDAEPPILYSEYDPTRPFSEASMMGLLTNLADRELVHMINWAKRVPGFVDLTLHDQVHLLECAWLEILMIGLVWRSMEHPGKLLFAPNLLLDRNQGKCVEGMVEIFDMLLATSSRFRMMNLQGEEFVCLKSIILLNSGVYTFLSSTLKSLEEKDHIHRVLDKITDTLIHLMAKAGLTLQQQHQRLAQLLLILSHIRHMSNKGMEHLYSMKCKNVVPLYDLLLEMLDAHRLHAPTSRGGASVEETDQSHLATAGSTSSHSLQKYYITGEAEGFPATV", "test": "Binding affinity for recombinant human ER-α (fluorescence polarization, ES2 displacement)", "procedure": "(§1) Binding Affinities for Recombinant Human ER-α and ER-β.\n(§2) The binding affinities of ER-α and ER-β were determined by measuring the change of polarization value when the fluorescent estrogen ligand, ES2, was displaced by the tested compounds. Experimental procedures were consistent with the protocol provided by Invitrogen. The fluorescent estrogen ligand, ES2, was provided in methanol/water (4:1, v/v) with the concentration of 1800 nM. Recombinant human ER-α and ER-β were provided in buffer (50 mM bis-tris propane, 400 mM KCl, 2 mM DTT, 1 mM EDTA and 10% glycerol), with the concentration of 734 nM and 3800 nM, respectively. All tested samples were dissolved in either methanol or DMSO. The sample solutions (1 pt) were mixed well with 49 pt of ES2 screening buffer (100 mM potassium phosphate, 100 μg/mL BGG and 0.02% NaN3). The ER-α/ES2 complex was prepared with the fluorescent estrogen ligand ES2, human recombinant ER and ES2 screening buffer with the concentrations of 9 nM ES2 and 30 nM ER-α. The ER-β/ES2 complex was prepared with the fluorescent estrogen ligand ES2, human recombinant ER-β and ES2 screening buffer with the concentrations of 9 nM ES2 and 20 nM ER-ft Reactions were initiated by adding ER/ES2 complex (50 μL) to bring the incubation volume to 100 μL and incubated for 2 h avoiding light. […] Excitation-emission wavelengths for fluorescence polarization were […]. The polarization values in the presence of the test competitors were compared with those in control, in which the competitor was replaced with vehicle. The extent of competition was expressed as the percentage of remaining polarization compared to the control."}, "recombinant human ER-β": {"target": "T3, recombinant human ER-β (Homo sapiens, UniProt Q92731)", "T3 construct": "purchased Invitrogen (Carlsbad, Calif.)", "T3 sequence (Q92731 whole entry)": "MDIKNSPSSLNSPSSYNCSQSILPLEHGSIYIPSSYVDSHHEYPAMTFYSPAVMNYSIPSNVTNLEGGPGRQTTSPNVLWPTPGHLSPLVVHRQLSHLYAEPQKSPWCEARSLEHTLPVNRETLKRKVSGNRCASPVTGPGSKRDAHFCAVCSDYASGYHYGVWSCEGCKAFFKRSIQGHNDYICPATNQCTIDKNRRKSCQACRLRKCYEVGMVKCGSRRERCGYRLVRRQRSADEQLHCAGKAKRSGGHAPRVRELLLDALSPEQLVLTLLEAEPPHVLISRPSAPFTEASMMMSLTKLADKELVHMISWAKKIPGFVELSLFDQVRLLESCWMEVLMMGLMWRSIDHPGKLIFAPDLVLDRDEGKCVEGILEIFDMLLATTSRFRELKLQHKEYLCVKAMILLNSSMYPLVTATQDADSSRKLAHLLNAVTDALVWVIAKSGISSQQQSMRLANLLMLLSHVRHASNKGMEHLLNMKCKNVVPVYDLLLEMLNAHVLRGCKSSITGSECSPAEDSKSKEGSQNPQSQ", "test": "Binding affinity for recombinant human ER-β (fluorescence polarization, ES2 displacement)", "details": "Table 1; determined only for compounds with >90% competition", "procedure": "as §1, §2"}, "[2]": {"system": "progesterone receptor (PGR) mRNA expression in MCF-7 human breast cancer cells", "test": "Antagonism of β-estradiol-stimulated progesterone receptor (PGR) mRNA expression in MCF-7 cells", "type": "cell-based", "details": "1 μM compound, 24 h, 10 nM E2 alone set as 100%", "procedure": "To investigate the effects of ligand binding on ER-mediated transcriptional activities, the triphenylethylene bisphenols were tested for their abilities to antagonize β-estradiol (E2) in a functional assay. […] In this commonly used assay, the progesterone receptor (PGR) mRNA expression is used for assessing estrogenic or antiestrogenic activity in MCF-7 human breast cancer cells. […] The PGR mRNA expression level with 10 nM E2 stimulation alone was set as 100%, and the antiestrogenic effects of the compounds was monitored by the reduction of β-estradiol-stimulated mRNA levels.\nCell Culture and Test Compound Treatment. […]\nThe MCF-7 cells treated with test compounds or experimental controls for 24 h were harvested for progesterone receptor (PGR) messenger ribonucleic acid (mRNA) extraction. […] The RNA concentration was measured using the Qubit RNA BR assay (Life Technologies Corp., Carlsbad, Calif.) for the Qubit 2.0 fluorometer (Life Technologies Corp., Carlsbad, Calif.). […]\nComplementary deoxyribonucleic acid (cDNA) for the real-time quantitative polymerase chain reaction (PCR) assay was synthesized from DNase-treated total RNA using the QuantiTect reverse transcription kit (QiagenInc., Valencia, Calif., USA).\nReal-Time Quantitative Polymerase Chain Reaction (PCR) for cDNA. […]"}, "[3]": {"system": "postmenopausal women with breast cancer", "details": "five-year ATAC trial; cited from earlier work"}, "[4]": {"details": "Table 1, mean of at least three experiments"}}}
{"compound": "CCC(=C(c1ccc(O)cc1)c1ccc(O)cc1)c1ccccc1", "note": "[Compound 7, reference compound]", "values": [{"measurement": "IC50", "setting": "[1]; Table 2, determined for compounds with inhibition higher than 90%", "value": "24.9 ± 1.4", "unit": "µM"}, {"measurement": "ER antagonism / agonism in MCF-7-2a cells", "setting": "ER in MCF-7-2a cells", "value": "good ER antagonist without significant agonistic side effects"}, {"measurement": "ER-α percent competition", "setting": "recombinant human ER-α; Table 2, at 100000 nM compound", "value": 80, "unit": "% competition"}, {"measurement": "EC50", "setting": "recombinant human ER-β", "value": "0.307 ± 0.106", "unit": "µM"}]}
{"compound": "CC/C(=C(\\c1ccc(O)cc1)c1ccc(OCCNC)cc1)c1ccccc1", "note": "[Endoxifen]", "values": [{"measurement": "PGR mRNA expression level in the presence of 10 nM E2", "setting": "[2]", "value": 10, "unit": "%"}]}
{"compound": "CC/C(=C(\\c1ccc(O)cc1)c1ccc(OCCN)cc1)c1ccccc1", "note": "[(E,Z)-norendoxifen]", "values": [{"measurement": "PGR mRNA expression level in the presence of 10 nM E2", "setting": "[2]", "value": 33, "unit": "%"}]}
{"compound": "Oc1ccc(C(=C(Cn2ccnc2)c2ccccc2)c2ccc(O)cc2)cc1", "note": "[Compound 12, 4,4′-(3-(1H-Imidazol-1-yl)-2-phenylprop-1-ene-1,1-diyl)diphenol]", "values": [{"measurement": "IC50", "setting": "[1]; [4]", "value": "0.00477 ± 0.00038", "unit": "µM"}, {"measurement": "fold improvement/increase in aromatase inhibitory activity compared with 7", "setting": "[1]; vs compound 7", "value": "> 5000", "unit": "fold"}, {"measurement": "melting point", "value": "225 to 227", "unit": "°C"}, {"measurement": "EC50", "setting": "recombinant human ER-α; Table 1, determined only for compounds with >90% competition", "value": 0.0273, "unit": "µM"}, {"measurement": "EC50", "setting": "recombinant human ER-β", "value": 0.0409, "unit": "µM"}]}
{"compound": "N#CCC(=C(c1ccc(O)cc1)c1ccc(O)cc1)c1ccc(N)cc1", "note": "[Compound 25, 3-(4-Aminophenyl)-4,4-bis(4-hydroxyphenyl)but-3-enenitrile]", "values": [{"measurement": "IC50", "setting": "[1]; [4]", "value": "0.0363 ± 0.0008", "unit": "µM"}, {"measurement": "melting point", "value": "235 to 238", "unit": "°C"}, {"measurement": "ER-α percent competition", "setting": "recombinant human ER-α; Table 1, at 100 μM compound", "value": 0, "unit": "% competition"}]}
{"compound": "CC(C)(C#N)c1cc(Cn2cncn2)cc(C(C)(C)C#N)c1", "note": "[anastrozole]", "values": [{"measurement": "improvement of disease-free survival compared to tamoxifen", "setting": "[3]", "value": 13, "unit": "%"}, {"measurement": "reduction in occurrence of contralateral breast cancer compared to tamoxifen", "setting": "[3]", "value": 42, "unit": "%"}, {"measurement": "reduction in risk of distant metastasis compared to tamoxifen", "setting": "[3]", "value": 16, "unit": "%"}, {"measurement": "reduction in the rate of recurrence compared to tamoxifen", "setting": "[3]", "value": 21, "unit": "%"}]}
